Source: PubChem BioAssay AID248 (DTP/NCI, 2004)
Several values for one entry are separate records, joined by “and”; a condition that tells them apart may be missing. Identical values can stand only once. Toxic doses and inconclusive results are not listed. Cut-off read from the data, not from the text of the source: active = T/C of 150% or more; inactive = T/C below 125%.

Tested on: L1210 leukemia ip in BDF1 mice, survival T/C
Experiment: NCI In Vivo Anticancer Drug Screen. Data for tumor model L1210 Leukemia (intraperitoneal) in B6D2F1 (BDF1) mice
Details: higher = longer survival
Method in brief: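 Tumor cells were implanted, animals were treated, and survival was followed. The result divides the treated measurement by the vehicle-control measurement.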

Measured: T/C

C[C@H](N)C(=O)N[C@@H]1[C@H]2C(=C(O)C[C@@H](O)[C@@H]2O)C(=O)O[C@@H]1C
active: endpoint: mean survival time, dose: 300.0 mg/kg/injection, schedule: Q01DX Z (ip), vehicle: saline 160 % of control | endpoint: mean survival time, dose: 320.0 mg/kg/injection, schedule: Q01DX015 (ip), vehicle: saline 156 % of control and 174 % of control | endpoint: mean survival time, dose: 400.0 mg/kg/injection, schedule: Q01DX013 (ip), vehicle: saline 178 % of control | endpoint: mean survival time, dose: 400.0 mg/kg/injection, schedule: Q01DX Z (ip), vehicle: saline 151 % of control | endpoint: mean survival time, dose: 450.0 mg/kg/injection, schedule: Q01DX015 (ip), vehicle: saline 155 % of control | endpoint: mean survival time, dose: 656.0 mg/kg/injection, schedule: Q01DX015 (ip), vehicle: carboxymethylcellulose (CMC) 162 % of control | endpoint: mean survival time, dose: 800.0 mg/kg/injection, schedule: Q01DX Z (im), vehicle: saline 176 % of control | endpoint: mean survival time, dose: 800.0 mg/kg/injection, schedule: Q01DX Z (sc), vehicle: saline 174 % of control | endpoint: mean survival time, dose: 1491.0 mg/kg/injection, schedule: Q01DX015 (ip), vehicle: carboxymethylcellulose (CMC) 155 % of control | endpoint: mean survival time, dose: 1600.0 mg/kg/injection, schedule: Q01DX Z (im), vehicle: saline 160 % of control | endpoint: mean survival time, dose: 1687.0 mg/kg/injection, schedule: Q02DX004 (ip), vehicle: saline 166 % of control | endpoint: median survival time, dose: 600.0 mg/kg/injection, schedule: Q01DX009 (ip), vehicle: saline 160 % of control | endpoint: median survival time, dose: 1200.0 mg/kg/injection, schedule: Q01DX009 (ip), vehicle: saline 180 % of control
inactive: endpoint: mean survival time, dose: 16.0 mg/kg/injection, schedule: Q01DX Z (ip), vehicle: carboxymethylcellulose (CMC) 100 % of control | endpoint: mean survival time, dose: 31.0 mg/kg/injection, schedule: Q01DX Z (ip), vehicle: carboxymethylcellulose (CMC) 97 % of control | endpoint: mean survival time, dose: 37.5 mg/kg/injection, schedule: Q01DX010 (ip), vehicle: saline 102 % of control and 104 % of control | endpoint: mean survival time, dose: 50.0 mg/kg/injection, schedule: Q01DX001 (ip), vehicle: saline 105 % of control | endpoint: mean survival time, dose: 50.0 mg/kg/injection, schedule: Q#A X Z (ip), vehicle: saline 120 % of control | endpoint: mean survival time, dose: 62.0 mg/kg/injection, schedule: Q01DX Z (ip), vehicle: carboxymethylcellulose (CMC) 112 % of control | endpoint: mean survival time, dose: 75.0 mg/kg/injection, schedule: Q01DX010 (ip), vehicle: saline 104 % of control | endpoint: mean survival time, dose: 88.0 mg/kg/injection, schedule: Q01DX015 (ip), vehicle: saline 118 % of control | endpoint: mean survival time, dose: 100.0 mg/kg/injection, schedule: Q01DX001 (ip), vehicle: saline 104 % of control | endpoint: mean survival time, dose: 100.0 mg/kg/injection, schedule: Q01DX006 (iv), vehicle: saline 101 % of control | endpoint: mean survival time, dose: 100.0 mg/kg/injection, schedule: Q01DX Z (im), vehicle: saline 98 % of control | endpoint: mean survival time, dose: 100.0 mg/kg/injection, schedule: Q01DX Z (sc), vehicle: saline 102 % of control | endpoint: mean survival time, dose: 125.0 mg/kg/injection, schedule: Q01DX Z (ip), vehicle: carboxymethylcellulose (CMC) 124 % of control | endpoint: mean survival time, dose: 125.0 mg/kg/injection, schedule: Q01DX Z (ip), vehicle: saline 116 % of control | endpoint: mean survival time, dose: 130.0 mg/kg/injection, schedule: Q01DX015 (ip), vehicle: saline 114 % of control | endpoint: mean survival time, dose: 150.0 mg/kg/injection, schedule: Q01DX005 (ip), vehicle: saline 104 % of control | endpoint: mean survival time, dose: 150.0 mg/kg/injection, schedule: Q03HX016 (ip), vehicle: saline 103 % of control | endpoint: mean survival time, dose: 150.0 mg/kg/injection, schedule: Q08DX002 (ip), vehicle: saline 116 % of control | endpoint: mean survival time, dose: 200.0 mg/kg/injection, schedule: Q01DX001 (ip), vehicle: saline 110 % of control | endpoint: mean survival time, dose: 200.0 mg/kg/injection, schedule: Q01DX006 (iv), vehicle: saline 104 % of control | endpoint: mean survival time, dose: 200.0 mg/kg/injection, schedule: Q01DX015 (ip), vehicle: saline 120 % of control | endpoint: mean survival time, dose: 200.0 mg/kg/injection, schedule: Q01DX Z (im), vehicle: saline 110 % of control | endpoint: mean survival time, dose: 200.0 mg/kg/injection, schedule: Q01DX Z (sc), vehicle: saline 116 % of control | endpoint: mean survival time, dose: 268.0 mg/kg/injection, schedule: Q## X004 (ip), vehicle: saline 108 % of control | endpoint: mean survival time, dose: 300.0 mg/kg/injection, schedule: Q01DX001 (sc), vehicle: saline 96 % of control | endpoint: mean survival time, dose: 300.0 mg/kg/injection, schedule: Q01DX005 (ip), vehicle: saline 116 % of control | endpoint: mean survival time, dose: 300.0 mg/kg/injection, schedule: Q01DX009 (sc), vehicle: saline 113 % of control | endpoint: mean survival time, dose: 300.0 mg/kg/injection, schedule: Q03HX016 (ip), vehicle: saline 110 % of control | endpoint: mean survival time, dose: 300.0 mg/kg/injection, schedule: Q03HX024 (ip), vehicle: saline 109 % of control | endpoint: mean survival time, dose: 300.0 mg/kg/injection, schedule: Q04DX003 (ip), vehicle: saline 119 % of control | endpoint: mean survival time, dose: 300.0 mg/kg/injection, schedule: Q08DX002 (ip), vehicle: saline 111 % of control | endpoint: mean survival time, dose: 333.0 mg/kg/injection, schedule: Q02DX004 (ip), vehicle: saline 116 % of control | endpoint: mean survival time, dose: 352.0 mg/kg/injection, schedule: Q## X032 (ip), vehicle: saline 116 % of control | endpoint: mean survival time, dose: 400.0 mg/kg/injection, schedule: Q01DX001 (ip), vehicle: saline 105 % of control | endpoint: mean survival time, dose: 400.0 mg/kg/injection, schedule: Q01DX006 (iv), vehicle: saline 113 % of control | endpoint: mean survival time, dose: 400.0 mg/kg/injection, schedule: Q01DX Z (oral), vehicle: saline 104 % of control | endpoint: mean survival time, dose: 400.0 mg/kg/injection, schedule: Q## X004 (ip), vehicle: saline 113 % of control | endpoint: mean survival time, dose: 536.0 mg/kg/injection, schedule: Q## X032 (ip), vehicle: saline 119 % of control and 120 % of control | endpoint: mean survival time, dose: 600.0 mg/kg/injection, schedule: Q01DX001 (sc), vehicle: saline 105 % of control | endpoint: mean survival time, dose: 600.0 mg/kg/injection, schedule: Q01DX005 (ip), vehicle: saline 118 % of control | endpoint: mean survival time, dose: 600.0 mg/kg/injection, schedule: Q01DX009 (sc), vehicle: saline 119 % of control | endpoint: mean survival time, dose: 600.0 mg/kg/injection, schedule: Q03HX016 (ip), vehicle: saline 110 % of control | endpoint: mean survival time, dose: 600.0 mg/kg/injection, schedule: Q03HX024 (ip), vehicle: saline 115 % of control | endpoint: mean survival time, dose: 600.0 mg/kg/injection, schedule: Q04DX003 (ip), vehicle: saline 119 % of control | endpoint: mean survival time, dose: 600.0 mg/kg/injection, schedule: Q08DX002 (ip), vehicle: saline 113 % of control | endpoint: mean survival time, dose: 600.0 mg/kg/injection, schedule: Q## X004 (ip), vehicle: saline 111 % of control | endpoint: mean survival time, dose: 700.0 mg/kg/injection, schedule: Q01DX001 (ip), vehicle: saline 110 % of control and 117 % of control | endpoint: mean survival time, dose: 700.0 mg/kg/injection, schedule: Q07DX Z (ip), vehicle: saline 114 % of control | endpoint: mean survival time, dose: 800.0 mg/kg/injection, schedule: Q01DX Z (oral), vehicle: saline 108 % of control | endpoint: mean survival time, dose: 800.0 mg/kg/injection, schedule: Q## X032 (ip), vehicle: saline 117 % of control | endpoint: mean survival time, dose: 900.0 mg/kg/injection, schedule: Q## X004 (ip), vehicle: saline 122 % of control | endpoint: mean survival time, dose: 1084.0 mg/kg/injection, schedule: Q01DX001 (ip), vehicle: saline 94 % of control and 95 % of control | endpoint: mean survival time, dose: 1200.0 mg/kg/injection, schedule: Q01DX001 (sc), vehicle: saline 101 % of control | endpoint: mean survival time, dose: 1200.0 mg/kg/injection, schedule: Q03HX016 (ip), vehicle: saline 111 % of control | endpoint: mean survival time, dose: 1200.0 mg/kg/injection, schedule: Q## X032 (ip), vehicle: saline 120 % of control and 121 % of control | endpoint: mean survival time, dose: 1300.0 mg/kg/injection, schedule: Q01DX001 (ip), vehicle: saline 106 % of control | endpoint: mean survival time, dose: 1350.0 mg/kg/injection, schedule: Q## X004 (ip), vehicle: saline 122 % of control | endpoint: mean survival time, dose: 1400.0 mg/kg/injection, schedule: Q01DX001 (ip), vehicle: saline 106 % of control and 119 % of control | endpoint: mean survival time, dose: 1400.0 mg/kg/injection, schedule: Q07DX Z (ip), vehicle: saline 120 % of control | endpoint: mean survival time, dose: 1600.0 mg/kg/injection, schedule: Q01DX Z (oral), vehicle: saline 106 % of control | endpoint: mean survival time, dose: 1650.0 mg/kg/injection, schedule: Q01DX001 (ip), vehicle: saline 96 % of control and 97 % of control | endpoint: mean survival time, dose: 2000.0 mg/kg/injection, schedule: Q01DX001 (ip), vehicle: saline 120 % of control | endpoint: mean survival time, dose: 2024.0 mg/kg/injection, schedule: Q01DX001 (ip), vehicle: saline 115 % of control | endpoint: mean survival time, dose: 2237.0 mg/kg/injection, schedule: Q01DX015 (ip), vehicle: carboxymethylcellulose (CMC) 108 % of control | endpoint: mean survival time, dose: 2400.0 mg/kg/injection, schedule: Q01DX001 (sc), vehicle: saline 104 % of control | endpoint: mean survival time, dose: 2400.0 mg/kg/injection, schedule: Q03HX016 (ip), vehicle: saline 119 % of control | endpoint: mean survival time, dose: 2400.0 mg/kg/injection, schedule: Q08DX002 (ip), vehicle: saline 122 % of control | endpoint: mean survival time, dose: 2464.0 mg/kg/injection, schedule: Q01DX001 (ip), vehicle: saline 100 % of control | endpoint: mean survival time, dose: 2800.0 mg/kg/injection, schedule: Q01DX001 (ip), vehicle: saline 123 % of control | endpoint: mean survival time, dose: 2800.0 mg/kg/injection, schedule: Q07DX Z (ip), vehicle: saline 119 % of control | endpoint: mean survival time, dose: 3000.0 mg/kg/injection, schedule: Q01DX001 (ip), vehicle: saline 115 % of control | endpoint: mean survival time, dose: 3200.0 mg/kg/injection, schedule: Q01DX Z (oral), vehicle: saline 108 % of control | endpoint: median survival time, dose: 75.0 mg/kg/injection, schedule: Q01DX009 (ip), vehicle: saline 113 % of control | endpoint: median survival time, dose: 133.0 mg/kg/injection, schedule: Q04DX003 (ip), vehicle: saline 97 % of control | endpoint: median survival time, dose: 266.0 mg/kg/injection, schedule: Q04DX003 (ip), vehicle: saline 101 % of control | endpoint: median survival time, dose: 532.0 mg/kg/injection, schedule: Q04DX003 (ip), vehicle: saline 110 % of control
